According to paper PMC11418212, “Characterization of four structurally diverse inhibitors of SUR2-containing KATP channels” (Channels, 2024):
Values joined by “and” are separate entries in the source; they are usually repeats but may differ in a detail not shown here. Equal entries are not always repeated. “Also recorded” adds a separate entry of the source. Where two headings read alike, the source gives them in different places.

Legend:
Kir6.1/SUR2B [1] = molecular target: T1, Kir6.1/SUR2B (Homo sapiens, UniProt O60706); test: Quantitative thallium flux assay, inhibition, stably transfected T-REx-HEK293 cells; format: cell-based
T1 construct: expressed in transfected cells; Kir6.1 tetracycline-inducible, SUR2B constitutive
T1 sequence (O60706 1-1549 isoform O60706-2, species assumed): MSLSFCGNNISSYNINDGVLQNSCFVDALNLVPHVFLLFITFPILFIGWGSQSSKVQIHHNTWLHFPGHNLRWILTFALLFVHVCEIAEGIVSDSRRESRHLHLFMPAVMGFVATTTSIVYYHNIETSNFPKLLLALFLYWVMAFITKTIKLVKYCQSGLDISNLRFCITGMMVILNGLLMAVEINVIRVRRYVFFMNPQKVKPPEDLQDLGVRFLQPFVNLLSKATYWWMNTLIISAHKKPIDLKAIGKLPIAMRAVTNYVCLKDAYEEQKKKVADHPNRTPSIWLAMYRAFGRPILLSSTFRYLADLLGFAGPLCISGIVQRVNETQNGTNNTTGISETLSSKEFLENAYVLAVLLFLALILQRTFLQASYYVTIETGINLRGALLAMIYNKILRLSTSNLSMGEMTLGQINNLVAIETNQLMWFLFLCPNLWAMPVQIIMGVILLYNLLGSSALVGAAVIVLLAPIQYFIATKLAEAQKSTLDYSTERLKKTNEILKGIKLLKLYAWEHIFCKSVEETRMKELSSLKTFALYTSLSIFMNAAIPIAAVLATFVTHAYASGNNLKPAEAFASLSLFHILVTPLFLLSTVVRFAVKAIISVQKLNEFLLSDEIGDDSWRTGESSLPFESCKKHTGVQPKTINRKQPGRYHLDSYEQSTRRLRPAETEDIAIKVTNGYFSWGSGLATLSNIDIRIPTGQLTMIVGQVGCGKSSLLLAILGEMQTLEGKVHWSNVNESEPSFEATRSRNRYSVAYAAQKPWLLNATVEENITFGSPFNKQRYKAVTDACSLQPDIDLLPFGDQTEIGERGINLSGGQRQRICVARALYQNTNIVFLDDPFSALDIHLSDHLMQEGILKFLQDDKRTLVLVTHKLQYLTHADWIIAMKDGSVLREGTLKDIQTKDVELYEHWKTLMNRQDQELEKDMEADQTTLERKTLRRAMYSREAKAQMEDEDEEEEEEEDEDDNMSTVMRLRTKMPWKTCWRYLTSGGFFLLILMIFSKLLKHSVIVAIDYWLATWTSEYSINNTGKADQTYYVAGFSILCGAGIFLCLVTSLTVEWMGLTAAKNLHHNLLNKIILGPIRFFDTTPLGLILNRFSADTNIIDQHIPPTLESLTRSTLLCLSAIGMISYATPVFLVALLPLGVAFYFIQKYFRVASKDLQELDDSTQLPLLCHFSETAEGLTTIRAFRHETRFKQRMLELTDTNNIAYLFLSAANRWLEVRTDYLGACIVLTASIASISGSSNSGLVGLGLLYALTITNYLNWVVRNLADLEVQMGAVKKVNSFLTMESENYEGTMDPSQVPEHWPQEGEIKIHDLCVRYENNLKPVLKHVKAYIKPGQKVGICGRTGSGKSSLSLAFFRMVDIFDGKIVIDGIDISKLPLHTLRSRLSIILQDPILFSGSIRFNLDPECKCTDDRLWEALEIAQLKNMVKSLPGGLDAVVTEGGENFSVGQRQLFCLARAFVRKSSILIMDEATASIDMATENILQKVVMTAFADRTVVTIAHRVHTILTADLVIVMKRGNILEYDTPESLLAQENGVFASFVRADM
T1 sequence (Q15842 whole entry partner, species assumed): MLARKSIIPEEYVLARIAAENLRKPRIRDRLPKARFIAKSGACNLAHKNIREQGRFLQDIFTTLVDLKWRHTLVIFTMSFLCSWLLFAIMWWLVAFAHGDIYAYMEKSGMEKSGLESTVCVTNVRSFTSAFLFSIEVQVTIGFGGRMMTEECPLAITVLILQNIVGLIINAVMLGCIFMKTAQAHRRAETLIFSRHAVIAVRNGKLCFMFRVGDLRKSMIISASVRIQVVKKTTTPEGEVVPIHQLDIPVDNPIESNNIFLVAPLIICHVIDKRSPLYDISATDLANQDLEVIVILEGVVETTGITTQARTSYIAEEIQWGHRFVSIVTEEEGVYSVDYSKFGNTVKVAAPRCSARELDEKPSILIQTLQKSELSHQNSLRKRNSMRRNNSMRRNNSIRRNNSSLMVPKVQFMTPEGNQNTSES

Kir6.1/SUR2B [2] = molecular target: T1, Kir6.1/SUR2B; test: Thallium flux activation dose-response without channel pre-activation; format: cell-based; conditions: no channel pre-activation; doses up to 30 µM
Method: (§1) Thallium flux assays were conducted using the established methods. Stably transfected T-REx-HEK-293 cells expressing Kir6.2/SUR1 or Kir6.1/SUR2B were cultured overnight in polyamine-coated plates (black-walled, clear-bottomed; BD, Bedford, MA) at a density of 20,000 cells in 20 µl per well of cell culture media. The expression of Kir6.2/SUR1 or Kir6.1/SUR2B channels was induced by treating cells with 1 µg/ml tetracycline overnight. The following day, cells were rinsed with an assay buffer (Hanks’ Balanced Salt Solution supplied with 20 mM HEPES), loaded with the thallium-sensor dye Brilliant Thallos-AM AM (Ion Bioscience, San Marcos, TX) for 1 h, and then washed again with assay buffer to remove unincorporated dye. The cell plate was subsequently placed in a Panoptic Kinetic Imaging Plate Reader (Wavefront Bioscience, Franklin, TN) and imaged at a frequency of 1 Hz using 482/35 nm (excitation) and 536/40 nm (emission) filter sets. Kir6.1/SUR2B channels were activated with 10 µM pinacidil, whereas Kir6.1/SUR1 was activated with 30 µM VU0071063 [34]. To activate KATP channels independent of activators with ATP-depletion method, cells were treated with a cocktail of metabolic inhibitors (2.5 mM sodium cyanide and 20 mM 2-deoxy glucose) for 25 min before imagine. Control and test compounds diluted freshly from DMSO stocks into assay buffer were added to wells for four minutes before adding 0.5 mM chloride-free thallium stimulus buffer (Ion Bioscience) to initiate thallium flux through the expressed KATP channels. Thallium flux was recorded from all 384-wells for 2 min before terminating the experiment. […] Selectivity assays against other Kir channels were performed as described previously.
(§2) We therefore systematically explored this possibility in dose–response experiments against Kir6.2/SUR1 in the absence of channel pre-activation. Kir6.1/SUR2B was also evaluated for comparison.
(§3) Figure 6. Paradoxical activation of Kir6.2/SUR1. […] Fluorescence intensity at each dose was normalized to that in the absence of drug. […] (b) Activities of indicated compounds at 30 μM toward Kir6.1/SUR2B normalized to that of 30 μM pinacidil. […] (d) Activities of indicated compounds at 30 μM toward Kir6.2/SUR1 normalized to that of 30 μM VU0071063.

Kir3.1/3.4 = molecular target: T2, Kir3.1/3.4 (Homo sapiens, UniProt P48544+P48549); design: method as in PMID 29895592; conditions: cited from earlier work
T2 construct: expressed in transfected cells
T2 sequence (P48549 1-501): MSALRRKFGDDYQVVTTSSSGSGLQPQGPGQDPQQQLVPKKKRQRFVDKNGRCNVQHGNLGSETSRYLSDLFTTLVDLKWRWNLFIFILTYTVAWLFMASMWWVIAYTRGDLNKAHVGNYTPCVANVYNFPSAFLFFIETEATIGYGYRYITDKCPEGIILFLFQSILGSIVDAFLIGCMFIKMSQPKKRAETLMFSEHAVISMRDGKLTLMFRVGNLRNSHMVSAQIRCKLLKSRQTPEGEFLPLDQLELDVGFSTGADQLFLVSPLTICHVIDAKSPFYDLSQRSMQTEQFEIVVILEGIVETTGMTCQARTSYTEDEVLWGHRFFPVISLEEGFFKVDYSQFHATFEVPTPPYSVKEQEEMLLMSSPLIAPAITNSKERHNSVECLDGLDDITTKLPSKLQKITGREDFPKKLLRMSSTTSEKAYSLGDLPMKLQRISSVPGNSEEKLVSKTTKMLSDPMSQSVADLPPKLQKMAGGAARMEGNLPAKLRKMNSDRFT
T2 sequence (P48544 1-419): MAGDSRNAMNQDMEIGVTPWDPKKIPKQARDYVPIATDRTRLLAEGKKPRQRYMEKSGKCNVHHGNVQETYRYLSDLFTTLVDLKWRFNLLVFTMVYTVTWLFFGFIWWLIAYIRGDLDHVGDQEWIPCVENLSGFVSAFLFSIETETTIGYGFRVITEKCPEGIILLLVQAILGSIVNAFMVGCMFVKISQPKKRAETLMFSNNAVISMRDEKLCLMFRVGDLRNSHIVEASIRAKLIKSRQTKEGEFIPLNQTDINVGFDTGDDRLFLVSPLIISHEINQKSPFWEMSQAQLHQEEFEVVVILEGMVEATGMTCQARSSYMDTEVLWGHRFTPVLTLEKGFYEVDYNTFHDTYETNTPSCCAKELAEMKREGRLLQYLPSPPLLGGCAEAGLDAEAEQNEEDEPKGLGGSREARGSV

Kir3.1/3.2 = molecular target: T3, Kir3.1/3.2 (Homo sapiens, UniProt P48051+P48549); design: method as in PMID 29895592; conditions: cited from earlier work
T3 construct: expressed in transfected cells
T3 sequence (P48549 1-501): T2 sequence (P48549 1-501)
T3 sequence (P48051 1-423): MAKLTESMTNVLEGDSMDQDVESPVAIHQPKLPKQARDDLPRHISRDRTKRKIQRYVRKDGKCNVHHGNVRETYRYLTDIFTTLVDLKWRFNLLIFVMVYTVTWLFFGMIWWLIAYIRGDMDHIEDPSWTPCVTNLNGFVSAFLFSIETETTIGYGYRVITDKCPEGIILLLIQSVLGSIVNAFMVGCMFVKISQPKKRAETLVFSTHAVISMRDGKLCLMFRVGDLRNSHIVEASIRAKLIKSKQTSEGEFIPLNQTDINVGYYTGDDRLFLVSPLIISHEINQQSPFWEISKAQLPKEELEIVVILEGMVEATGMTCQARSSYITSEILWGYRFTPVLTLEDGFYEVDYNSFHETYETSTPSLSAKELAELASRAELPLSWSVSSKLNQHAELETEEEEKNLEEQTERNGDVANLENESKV

Kir4.1 = molecular target: T4, Kir4.1 (Homo sapiens, UniProt P78508); design: method as in PMID 29895592; conditions: cited from earlier work
T4 construct: expressed in transfected cells
T4 sequence (P78508 1-379): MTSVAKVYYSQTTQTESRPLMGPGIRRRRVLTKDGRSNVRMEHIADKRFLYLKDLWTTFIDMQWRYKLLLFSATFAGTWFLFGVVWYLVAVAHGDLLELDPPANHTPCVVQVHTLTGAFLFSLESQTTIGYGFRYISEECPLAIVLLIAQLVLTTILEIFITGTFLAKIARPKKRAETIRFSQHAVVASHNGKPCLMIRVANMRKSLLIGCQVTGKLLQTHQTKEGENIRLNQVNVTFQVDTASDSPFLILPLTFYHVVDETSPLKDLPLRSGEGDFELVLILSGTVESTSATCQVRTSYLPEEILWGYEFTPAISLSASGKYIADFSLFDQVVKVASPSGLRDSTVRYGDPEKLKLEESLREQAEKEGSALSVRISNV

Kir4.2 = molecular target: T5, Kir4.2 (Homo sapiens, UniProt Q99712); design: method as in PMID 29895592; conditions: cited from earlier work
T5 construct: expressed in transfected cells
T5 sequence (Q99712 1-375): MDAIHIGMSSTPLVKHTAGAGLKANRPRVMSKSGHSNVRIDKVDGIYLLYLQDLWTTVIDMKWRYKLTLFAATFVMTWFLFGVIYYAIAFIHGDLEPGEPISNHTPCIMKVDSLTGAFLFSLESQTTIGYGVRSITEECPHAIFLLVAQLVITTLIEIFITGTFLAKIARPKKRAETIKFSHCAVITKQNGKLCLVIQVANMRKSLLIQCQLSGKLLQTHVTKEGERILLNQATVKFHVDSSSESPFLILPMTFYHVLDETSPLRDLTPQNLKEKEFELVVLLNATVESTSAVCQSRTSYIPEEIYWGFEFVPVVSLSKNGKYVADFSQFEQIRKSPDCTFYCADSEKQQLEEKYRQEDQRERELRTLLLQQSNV

[3] = test system: isolated mouse ductus arteriosus vessels; design: method as in PMID 38302135; conditions: compared with glibenclamide; cited from earlier work
Kir6.1/SUR2B [4] = molecular target: T1, Kir6.1/SUR2B; design: method as in PMID 38302135; conditions: previously reported; cited from earlier work
Kir6.2/SUR1 [5] = molecular target: T6, Kir6.2/SUR1 (Homo sapiens, UniProt Q09428); test: Thallium flux activation dose-response without channel pre-activation; format: cell-based; conditions: no channel pre-activation; doses up to 30 µM
T6 sequence (Q09428 whole entry, species assumed): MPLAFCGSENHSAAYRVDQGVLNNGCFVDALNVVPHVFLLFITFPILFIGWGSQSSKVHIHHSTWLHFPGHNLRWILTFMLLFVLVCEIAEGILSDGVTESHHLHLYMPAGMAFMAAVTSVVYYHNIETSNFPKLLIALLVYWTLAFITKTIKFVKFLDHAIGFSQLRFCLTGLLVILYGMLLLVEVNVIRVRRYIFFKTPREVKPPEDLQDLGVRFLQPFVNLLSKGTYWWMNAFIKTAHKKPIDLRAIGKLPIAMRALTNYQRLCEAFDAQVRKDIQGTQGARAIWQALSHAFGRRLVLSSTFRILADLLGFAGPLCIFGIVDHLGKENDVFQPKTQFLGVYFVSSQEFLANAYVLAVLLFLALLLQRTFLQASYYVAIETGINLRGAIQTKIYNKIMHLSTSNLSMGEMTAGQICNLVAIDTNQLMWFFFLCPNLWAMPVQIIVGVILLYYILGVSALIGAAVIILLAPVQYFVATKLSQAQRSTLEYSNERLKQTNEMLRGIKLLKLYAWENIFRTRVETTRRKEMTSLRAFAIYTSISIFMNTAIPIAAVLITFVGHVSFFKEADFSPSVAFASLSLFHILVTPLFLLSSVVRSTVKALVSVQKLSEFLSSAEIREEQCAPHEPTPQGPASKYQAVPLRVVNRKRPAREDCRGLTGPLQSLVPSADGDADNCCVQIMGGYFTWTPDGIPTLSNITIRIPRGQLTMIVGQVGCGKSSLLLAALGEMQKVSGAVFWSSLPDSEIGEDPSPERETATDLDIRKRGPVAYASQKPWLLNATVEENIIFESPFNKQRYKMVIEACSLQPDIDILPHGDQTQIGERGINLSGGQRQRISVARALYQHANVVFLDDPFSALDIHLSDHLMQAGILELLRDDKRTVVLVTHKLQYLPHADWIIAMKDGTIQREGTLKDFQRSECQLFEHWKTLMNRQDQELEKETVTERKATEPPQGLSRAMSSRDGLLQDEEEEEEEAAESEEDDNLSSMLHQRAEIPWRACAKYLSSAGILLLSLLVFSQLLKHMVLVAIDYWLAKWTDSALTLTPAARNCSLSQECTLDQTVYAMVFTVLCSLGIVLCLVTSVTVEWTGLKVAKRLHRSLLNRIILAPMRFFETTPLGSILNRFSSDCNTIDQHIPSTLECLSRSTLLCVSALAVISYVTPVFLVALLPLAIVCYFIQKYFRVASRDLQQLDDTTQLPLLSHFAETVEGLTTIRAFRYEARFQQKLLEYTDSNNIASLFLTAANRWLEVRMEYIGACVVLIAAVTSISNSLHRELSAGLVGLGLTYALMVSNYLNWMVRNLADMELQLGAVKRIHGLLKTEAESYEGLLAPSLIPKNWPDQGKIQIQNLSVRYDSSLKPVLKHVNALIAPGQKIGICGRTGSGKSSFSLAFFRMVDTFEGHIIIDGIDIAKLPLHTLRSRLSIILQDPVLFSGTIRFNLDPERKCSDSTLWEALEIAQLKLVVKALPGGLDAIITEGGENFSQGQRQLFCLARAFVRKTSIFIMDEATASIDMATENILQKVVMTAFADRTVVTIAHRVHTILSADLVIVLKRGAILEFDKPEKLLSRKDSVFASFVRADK
T6 sequence (Q14654 whole entry partner, species assumed): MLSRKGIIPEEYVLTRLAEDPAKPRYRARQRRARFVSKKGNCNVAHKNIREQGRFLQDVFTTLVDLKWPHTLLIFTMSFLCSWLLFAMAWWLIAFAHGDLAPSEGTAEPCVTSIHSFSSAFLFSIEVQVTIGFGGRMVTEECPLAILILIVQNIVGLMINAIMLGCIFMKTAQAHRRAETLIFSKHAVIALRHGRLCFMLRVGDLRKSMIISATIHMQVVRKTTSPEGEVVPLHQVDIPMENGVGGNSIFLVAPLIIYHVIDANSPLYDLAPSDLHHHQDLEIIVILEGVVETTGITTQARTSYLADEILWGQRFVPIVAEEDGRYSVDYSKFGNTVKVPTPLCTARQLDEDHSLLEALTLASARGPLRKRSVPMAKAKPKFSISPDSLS
Method: as §1, §2, §3

Kir6.2/SUR1 [6] = molecular target: T6, Kir6.2/SUR1; design: method as in PMID 38302135; conditions: previously reported; cited from earlier work
Kir6.2/SUR1 [7] = molecular target: T6, Kir6.2/SUR1; test: Quantitative thallium flux assay, inhibition, stably transfected T-REx-HEK293 cells; format: cell-based
Method: Briefly, T-Rex-HEK293 cells underwent co-transfection with pcDNA5/TO-Kir6.1 or pcDNA5/TO-Kir6.2 (inducible expression) and pcDNA3.1-SUR2B or pcDNA3.1-SUR1 (constitutive expression) using Lipofectamine LTX following the manufacturer’s instructions and were then subjected to selection with antibiotics. Monoclonal cell lines were established through limiting dilution and characterization in thallium flux assays described below. […] KATP channel selectivity assays were performed in HEK293 cells transiently transfected with the indicated subunit using Lipofectamine LTX. The cells were incubated for 48 h after transfection before performing thallium flux assays.
as §1, with “The cell plate was subsequently placed in a Panoptic Kinetic Imaging Plate Reader (Wavefront Bioscience, Franklin, TN) and imaged at a frequency of 1 Hz using 482/35 nm (excitation) and 536/40 nm (emission) filter sets. Kir6.1/SUR2B channels were activated with 10 µM pinacidil, whereas Kir6.1/SUR1 was activated with 30 µM VU0071063 [34].” left out
The kinetic fluorescence measurements (F) from each well were normalized to the initial reading (F0), producing static ratios (F/F0) that adjust for variations in cell count and dye uptake. […] The response (maxmin2) was determined by subtracting the min value from the max value. Percent inhibition was calculated by normalizing each well’s response to the positive and negative controls. Concentration–response curves were fitted using a single-site, four-parameter logistic function in Prism version 4.0 (GraphPad Software Inc., San Diego, CA) to calculate the half-maximal inhibitory concentration (IC50). Statistical comparisons of IC50 values were performed using an extra sum-of-squares F test and the Mann–Whitney test. A p-value of less than 0.05 was considered statistically significant.

[8] = ATP depletion with sodium cyanide and 2-deoxy-glucose, read-out: IC50 Kir6.1/SUR2B, ATP depletion
[9] = channels activated with 10 µM pinacidil, read-out: IC50 Kir6.1/SUR2B, pinacidil activation
[10] = thallium flux, ATP depletion with sodium cyanide and 2-deoxy-glucose

SMILES	IC50 (Kir6.1/SUR2B [1]; [8])	IC50 (Kir6.1/SUR2B [1]; [9])	Activation of Kir6.1/SUR2B (Kir6.1/SUR2B [2])	Efficacy of inhibition of Kir3.1/3.4 (Kir3.1/3.4; at 30 µM)	IC50 (Kir3.1/3.4) [µM]	Efficacy of inhibition of Kir3.1/3.2 (Kir3.1/3.2; at 30 µM)	IC50 (Kir3.1/3.2) [nM]	Efficacy of inhibition of Kir4.1 (Kir4.1; at 30 µM)	IC50 (Kir4.1) [µM]	IC50 (Kir4.2) [µM]	Potency for contraction of ductus arteriosus vessels [3]	IC50 (Kir6.1/SUR2B [4]) [nM]	Activation of Kir6.2/SUR1 (Kir6.2/SUR1 [5])	Activity toward Kir6.2/SUR1 (Kir6.2/SUR1 [6])	Effect on Kir6.2/SUR1 channel activity (Kir6.2/SUR1 [7]; VU0071063 activation or ATP depletion, full range of doses tested (up to 30 µM))	IC50 (Kir6.2/SUR1 [7]; [10]) [µM]	IC50 Kir6.2/SUR1, ATP depletion (Kir6.2/SUR1 [7]; [10])	IC50 Kir6.2/SUR1, VU0071063 activation (Kir6.2/SUR1 [7]; thallium flux, in the presence of 10 uM VU0071063)
COc1ccc(Cl)cc1C(=O)NCCc1ccc(S(=O)(=O)NC(=O)NC2CCCCC2)cc1 [Glibenclamide, glibenclamide, reference compound]	51 nM and 50 nM	33 nM and 30 nM	failed to activate															
CC(C)c1ccc(OCC(=O)NC2CC(C)(C)NC(C)(C)C2)c(Br)c1 [VU0134992]				greater than 90%	3.1	greater than 90%	2500	greater than 90%	5.2	8.2								
Cc1nc(-c2cccs2)sc1CNC(=O)Nc1cccs1 [VU0542270, reference compound]	31 nM and 30 nM	100 nM	failed to activate								same potency as glibenclamide	~100	failed to activate; also recorded: did not	no apparent activity	no effect	> 30	no fit	no fit
